In BigSolDB 2.1:

CC(C)(C)c1ccc2c(c1)C(=O)c1ccccc1C2=O
solubility (mole fraction)
Conditions	303.15 K	308.15 K	313.15 K	318.15 K	323.15 K	333.15 K
in 2,6-dimethyl-4-heptanol	0.0245	0.0351	0.0461	0.0635	0.0998	0.21
in mesitylene	0.282	0.317	0.345	0.386	0.443	0.604
in trioctyl phosphate	0.169	0.185	0.209	0.254	0.296	0.39
